Experimental data as given in US4281121A, “1,3,4-Thiadiazole-2-carboxylic acid derivatives, process for making the same and fungicidal and nematocidal compositions containing same” (Schering Aktiengesellschaft, priority 1978, dated 1981).

Each compound was assayed on Plasmopara viticola (assay: Prophylactic leaf treatment of grapevines in the hothouse against Plasmopara viticola). Conditions: concentration of active agent 0.001 (unit not given).
Format: in vivo
In short: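 Grapevines (5–8 leaves) sprayed to runoff with compound as 20% spray powder, then after drying inoculated on leaf undersides with sporangial suspension (~20,000/ml). Incubated at 22–24 °C, saturated humidity, 3–4 days normal humidity (30–70%), then one day saturated; activity from mean % infested leaf area per treatment.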

SMILES	% activity [%]
CCCCCCNC(=O)c1nnc(S(=O)(=O)CCC)s1 [5-propylsulfonyl-1,3,4-thiadiazole-2-carboxylic acid-hexylamide]	88

Same assay, conditions: concentration of active agent 0.005 (unit not given)

SMILES	% activity [%]
CCCCNC(=O)c1nnc([S+]([O-])CCC)s1 (centres unmarked) [5-propylsulfinyl-1,3,4-thiadiazole-2-carboxylic acid-butylamide]	91
CCCS(=O)(=O)c1nnc(C(N)=O)s1 [5-propylsulfonyl-1,3,4-thiadiazole-2-carboxamide]	89
CCCCCCNC(=O)c1nnc(S(=O)(=O)CCC)s1 [5-propylsulfonyl-1,3,4-thiadiazole-2-carboxylic acid-hexylamide]	98

Same assay, conditions: concentration of active agent 0.025 (unit not given)

SMILES	% activity [%]
CCCCCCCCNC(=O)c1nnc(S(=O)(=O)CC)s1 [5-ethylsulfonyl-1,3,4-thiadiazole-2-carboxylic acid-octylamide]	90
CCCCNC(=O)c1nnc([S+]([O-])CCC)s1 (centres unmarked) [5-propylsulfinyl-1,3,4-thiadiazole-2-carboxylic acid-butylamide]	99.1
CCCS(=O)(=O)c1nnc(C(N)=O)s1 [5-propylsulfonyl-1,3,4-thiadiazole-2-carboxamide]	95
CCCCCCNC(=O)c1nnc(S(=O)(=O)CCC)s1 [5-propylsulfonyl-1,3,4-thiadiazole-2-carboxylic acid-hexylamide]	100

These compounds were tested on Piricularia oryzae (assay: not given). Conditions: concentration of active agent 0.1 (percentages); 5 days.
Format: in vivo

SMILES	% activity [%]
CCCCCCNC(=O)c1nnc(S(=O)(=O)CCC)s1 [5-propylsulfonyl-1,3,4-thiadiazole-2-carboxylic acid-hexylamide]	95

These compounds were tested on Pythium ultimum (assay: Threshold concentration test for use of the compounds against Pythium ultimum (infested soil, garden peas)). Conditions: 20 mg/l soil; 3 weeks.
Format: in vivo
Design: key to root evaluation (1-4): 4: white roots without fungous necrosis; 3: white roots, minor fungous necrosis; 2: brown roots, already more pronounced fungous necrosis; 1: heavy fungous necrosis, roots rotted
In short: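 Pulverulent agents at 20% concentration mixed evenly into soil heavily infested with Pythium ultimum, then garden peas ('Wunder von Kelvedon', 20 per dish) sown at once. After three weeks at 20–24 °C in a hothouse, sound peas counted and roots scored on a 1–4 scale.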

SMILES	root evaluation (1-4)
CCCS(=O)(=O)c1nnc(C(N)=O)s1 [5-propylsulfonyl-1,3,4-thiadiazole-2-carboxamide]	1

Same assay, conditions: 20 mg/l soil; 20 grains per dish; 3 weeks at 20-24° C.

SMILES	number of sound peas
CCCS(=O)(=O)c1nnc(C(N)=O)s1 [5-propylsulfonyl-1,3,4-thiadiazole-2-carboxamide]	12

Same assay, conditions: 40 mg/l soil; 3 weeks

SMILES	root evaluation (1-4)
CCCS(=O)(=O)c1nnc(C(N)=O)s1 [5-propylsulfonyl-1,3,4-thiadiazole-2-carboxamide]	4

Same assay, conditions: 40 mg/l soil; 20 grains per dish; 3 weeks at 20-24° C.

SMILES	number of sound peas
CCCS(=O)(=O)c1nnc(C(N)=O)s1 [5-propylsulfonyl-1,3,4-thiadiazole-2-carboxamide]	19

Same assay, conditions: 80 mg/l soil; 3 weeks

SMILES	root evaluation (1-4)
CCCS(=O)(=O)c1nnc(C(N)=O)s1 [5-propylsulfonyl-1,3,4-thiadiazole-2-carboxamide]	4

Same assay, conditions: 80 mg/l soil; 20 grains per dish; 3 weeks at 20-24° C.

SMILES	number of sound peas
CCCS(=O)(=O)c1nnc(C(N)=O)s1 [5-propylsulfonyl-1,3,4-thiadiazole-2-carboxamide]	17

Each compound was assayed on Tilletia caries (assay: Treatment of oat seeds infested with Tilletia caries (spore germination)). Conditions: 10 g active agent per 100 kg.
Format: in vivo

SMILES	% activity [%]
CCCCCCCCNC(=O)c1nnc(S(=O)(=O)CC)s1 [5-ethylsulfonyl-1,3,4-thiadiazole-2-carboxylic acid-octylamide]	91
CCCS(=O)(=O)c1nnc(C(N)=O)s1 [5-propylsulfonyl-1,3,4-thiadiazole-2-carboxamide]	100

Same assay, conditions: 20 g active agent per 100 kg

SMILES	% activity [%]
CCCCCCCCNC(=O)c1nnc(S(=O)(=O)CC)s1 [5-ethylsulfonyl-1,3,4-thiadiazole-2-carboxylic acid-octylamide]	93
CCCCNC(=O)c1nnc([S+]([O-])CCC)s1 (centres unmarked) [5-propylsulfinyl-1,3,4-thiadiazole-2-carboxylic acid-butylamide]	100
CCCS(=O)(=O)c1nnc(C(N)=O)s1 [5-propylsulfonyl-1,3,4-thiadiazole-2-carboxamide]	100
CCCCCCNC(=O)c1nnc(S(=O)(=O)CCC)s1 [5-propylsulfonyl-1,3,4-thiadiazole-2-carboxylic acid-hexylamide]	100

Same assay, conditions: 50 g active agent per 100 kg

SMILES	% activity [%]
CCCCCCCCNC(=O)c1nnc(S(=O)(=O)CC)s1 [5-ethylsulfonyl-1,3,4-thiadiazole-2-carboxylic acid-octylamide]	98
CCCCNC(=O)c1nnc([S+]([O-])CCC)s1 (centres unmarked) [5-propylsulfinyl-1,3,4-thiadiazole-2-carboxylic acid-butylamide]	100
CCCS(=O)(=O)c1nnc(C(N)=O)s1 [5-propylsulfonyl-1,3,4-thiadiazole-2-carboxamide]	100
CCCCCCNC(=O)c1nnc(S(=O)(=O)CCC)s1 [5-propylsulfonyl-1,3,4-thiadiazole-2-carboxylic acid-hexylamide]	100

What follows are compounds tested on Botrytis cinerea (assay: Prophylactic leaf treatment of tomato plants against Botrytis cinerea). Conditions: concentration of 0.025 of the active agent (unit not given).
Format: in vivo

SMILES	% activity [%]
CCCCCCCCNC(=O)c1nnc(S(=O)(=O)CC)s1 [5-ethylsulfonyl-1,3,4-thiadiazole-2-carboxylic acid-octylamide]	87
CCCCNC(=O)c1nnc([S+]([O-])CCC)s1 (centres unmarked) [5-propylsulfinyl-1,3,4-thiadiazole-2-carboxylic acid-butylamide]	80
CCCS(=O)(=O)c1nnc(C(N)=O)s1 [5-propylsulfonyl-1,3,4-thiadiazole-2-carboxamide]	94
CCCCCCNC(=O)c1nnc(S(=O)(=O)CCC)s1 [5-propylsulfonyl-1,3,4-thiadiazole-2-carboxylic acid-hexylamide]	78
